Four compounds from US20160009693A1, “HERBICIDAL COMPOUNDS” (SYNGENTA LIMITED, priority 2013, published 2016) can be followed below.

The structures appear in SMILES notation.

What all share (assay type): in vivo
Common to all, as to settings: applied at 1000 g/h, evaluated after 13 days

Assay [1] deals with Solanum nigrum (SOLNI). Kind of assay: Herbicidal glasshouse test, post-emergence, SOLNI. The method, then: (§1) Seeds of a variety of test species are sown in standard soil in pots (Alopecurus myosuroides (ALOMY), Setaria faberi (SETFA), Echinochloa crus-galli (ECHCG), Solanum nigrum (SOLNI), Amaranthus retoflexus (AMARE), Ipomoea hederacea (IPOHE)). After cultivation for one day (pre-emergence) or after 8 days cultivation (post-emergence) under controlled conditions in a glasshouse (at 24/16° C., day/night; 14 hours light; 65% humidity), the plants are sprayed with an aqueous spray solution derived from the formulation of the technical active ingredient in acetone / water (50:50) solution containing 0.5% Tween 20 (polyoxyethelyene sorbitan monolaurate, CAS RN 9005-64-5). […] The test plants are then grown in a glasshouse under controlled conditions in a glasshouse (at 24/16° C., day/night; 14 hours light; 65% humidity) and watered twice daily. After 13 days for pre and post-emergence, the test is evaluated for the percentage damage caused to the plant. The biological activities are shown in the following table on a five point scale (5=80-100%; 4=60-79%; 3=40-59%; 2=20-39%; 1=0-19%).

Assay [2] relates to Echinochloa crus-galli (ECHCG). Nature of the assay: Herbicidal glasshouse test, post-emergence, ECHCG. Here is the method:
as §1

Assay [3] relates to Echinochloa crus-galli (ECHCG). Kind of assay: Herbicidal glasshouse test, pre-emergence, ECHCG. The method, then: as §1
In assay [4] the test system is Amaranthus retoflexus (AMARE). Kind of assay: Herbicidal glasshouse test, pre-emergence, AMARE. Here is the method:
as §1

For assay [5], the system named is Ipomoea hederacea (IPOHE). Kind of assay: Herbicidal glasshouse test, post-emergence, IPOHE. Here is the method:
as §1

Assay [6] has as its system Setaria faberi (SETFA). Nature of the assay: Herbicidal glasshouse test, post-emergence, SETFA. Here is the method: as §1
Assay [7] deals with Amaranthus retoflexus (AMARE). Kind of assay: Herbicidal glasshouse test, post-emergence, AMARE. Here is the method: as §1
For assay [8], the system named is Setaria faberi (SETFA). Kind of assay: Herbicidal glasshouse test, pre-emergence, SETFA. Here is the method:
as §1

Assay [9] concerns Alopecurus myosuroides (ALOMY). Kind of assay: Herbicidal glasshouse test, post-emergence, ALOMY. The method, then:
as §1

The test system of assay [10] is Alopecurus myosuroides (ALOMY). Kind of assay: Herbicidal glasshouse test, pre-emergence, ALOMY. Here is the method:
as §1

In assay [11] the test system is Solanum nigrum (SOLNI). Nature of the assay: Herbicidal glasshouse test, pre-emergence, SOLNI. Here is the method:
as §1

Assay [12] concerns Ipomoea hederacea (IPOHE). Nature of the assay: Herbicidal glasshouse test, pre-emergence, IPOHE. Here is the method:
as §1

As to `Cn1nnnc1NC(=O)c1nn(C)c(=O)n(Cc2c(Cl)cccc2Cl)c1=O` [Compound 1.072], the “POST Application SOLNI, percentage damage (five point scale)” value with Solanum nigrum (SOLNI) [1] is given as 5 (5=80-100%). Further, the “POST Application ECHCG, percentage damage (five point scale)” value in assay [2] is recorded as 4 (4=60-79%). Further, the “PRE Application ECHCG, percentage damage (five point scale)” value (“PRE Application ECHCG, percentage damage” below) in assay [3] was 5 (5=80-100%). In addition, the “PRE Application AMARE, percentage damage (five point scale)” value (from here on “PRE Application AMARE, percentage damage”) in assay [4] is listed as 5 (5=80-100%). In assay [5], the “POST Application IPOHE, percentage damage (five point scale)” value is listed as 4 (4=60-79%). Moreover, the “POST Application SETFA, percentage damage (five point scale)” value in the assay on Setaria faberi (SETFA) [6] is 4 (4=60-79%). Besides, the “POST Application AMARE, percentage damage (five point scale)” value in assay [7] is listed as 5 (5=80-100%). The “PRE Application SETFA, percentage damage (five point scale)” value (shortened to “PRE Application SETFA, percentage damage”) with Setaria faberi (SETFA) [8] is recorded as 2 (2=20-39%). Moreover, the “POST Application ALOMY, percentage damage (five point scale)” value in [9] is given as 4 (4=60-79%). Besides, in assay [10], the “PRE Application ALOMY, percentage damage (five point scale)” value (“PRE Application ALOMY, percentage damage” below) is listed as 5 (5=80-100%). In addition, the “PRE Application SOLNI, percentage damage (five point scale)” value (from here on “PRE Application SOLNI, percentage damage”) in the assay on Solanum nigrum (SOLNI) [11] is reported as 5 (5=80-100%). The “PRE Application IPOHE, percentage damage (five point scale)” value (shortened to “PRE Application IPOHE, percentage damage”) in assay [12] was 3 (3=40-59%).

Take `CC(Cl)c1ccc(-n2c(=O)c(C(=O)Nc3nnnn3C)nn(C)c2=O)cc1` (stereo not drawn) [Compound 1.010]: the “POST Application SOLNI, percentage damage (five point scale)” value with Solanum nigrum (SOLNI) [1] is on record as 5 (5=80-100%). The “POST Application ECHCG, percentage damage (five point scale)” value in assay [2] is given as 5 (5=80-100%). The “PRE Application ECHCG, percentage damage” value in [3] is 5 (5=80-100%). For the same compound, the “PRE Application AMARE, percentage damage” value in [4] was 4 (4=60-79%). For the same compound, the “POST Application IPOHE, percentage damage (five point scale)” value in assay [5] is reported as 5 (5=80-100%). Moreover, the “POST Application SETFA, percentage damage (five point scale)” value with Setaria faberi (SETFA) [6] is 5 (5=80-100%). In addition, the “POST Application AMARE, percentage damage (five point scale)” value in assay [7] is given as 5 (5=80-100%). Further, the “PRE Application SETFA, percentage damage” value with Setaria faberi (SETFA) [8] is 5 (5=80-100%). For the same compound, in [9], the “POST Application ALOMY, percentage damage (five point scale)” value is 5 (5=80-100%). The “PRE Application ALOMY, percentage damage” value in assay [10] is 5 (5=80-100%). Moreover, the “PRE Application SOLNI, percentage damage” value in the assay with Solanum nigrum (SOLNI) [11] is listed as 5 (5=80-100%). The “PRE Application IPOHE, percentage damage” value in [12] was 5 (5=80-100%).

For `Cn1nnnc1NC(=O)c1nn(C)c(=O)n(Cc2ccc(F)cc2Cl)c1=O` [Compound 1.069], in the assay with Solanum nigrum (SOLNI) [1], the “POST Application SOLNI, percentage damage (five point scale)” value is 5 (5=80-100%). Further, the “POST Application ECHCG, percentage damage (five point scale)” value in assay [2] was 5 (5=80-100%). Also, the “PRE Application ECHCG, percentage damage” value in [3] is recorded as 5 (5=80-100%). The “PRE Application AMARE, percentage damage” value in assay [4] was 5 (5=80-100%). Moreover, the “POST Application IPOHE, percentage damage (five point scale)” value in assay [5] was 5 (5=80-100%). For the same compound, the “POST Application SETFA, percentage damage (five point scale)” value with Setaria faberi (SETFA) [6] is given as 2 (2=20-39%). Moreover, the “POST Application AMARE, percentage damage (five point scale)” value in assay [7] is 5 (5=80-100%). Also, the “PRE Application SETFA, percentage damage” value with Setaria faberi (SETFA) [8] is listed as 2 (2=20-39%). Further, in assay [9], the “POST Application ALOMY, percentage damage (five point scale)” value was 5 (5=80-100%). For the same compound, the “PRE Application ALOMY, percentage damage” value in [10] is recorded as 5 (5=80-100%). Moreover, the “PRE Application SOLNI, percentage damage” value in the assay on Solanum nigrum (SOLNI) [11] is recorded as 5 (5=80-100%). For the same compound, the “PRE Application IPOHE, percentage damage” value in [12] was 5 (5=80-100%).

Regarding `Cn1nnnc1NC(=O)c1nn(C)c(=O)n(-c2cccc(F)c2)c1=O` [Compound 1.017], the “POST Application SOLNI, percentage damage (five point scale)” value in the assay on Solanum nigrum (SOLNI) [1] is 5 (5=80-100%). Also, the “POST Application ECHCG, percentage damage (five point scale)” value in assay [2] is reported as 5 (5=80-100%). Also, in assay [3], the “PRE Application ECHCG, percentage damage” value is reported as 5 (5=80-100%). Also, the “PRE Application AMARE, percentage damage” value in [4] was 5 (5=80-100%). The “POST Application IPOHE, percentage damage (five point scale)” value in assay [5] is 5 (5=80-100%). Also, in the assay with Setaria faberi (SETFA) [6], the “POST Application SETFA, percentage damage (five point scale)” value is 5 (5=80-100%). In addition, in [7], the “POST Application AMARE, percentage damage (five point scale)” value was 5 (5=80-100%). In addition, in the assay on Setaria faberi (SETFA) [8], the “PRE Application SETFA, percentage damage” value is 5 (5=80-100%). Moreover, in assay [9], the “POST Application ALOMY, percentage damage (five point scale)” value was 5 (5=80-100%). Besides, in [10], the “PRE Application ALOMY, percentage damage” value is reported as 5 (5=80-100%). Besides, the “PRE Application SOLNI, percentage damage” value in the assay on Solanum nigrum (SOLNI) [11] is listed as 5 (5=80-100%). The “PRE Application IPOHE, percentage damage” value in assay [12] is listed as 5 (5=80-100%).
